Results from patent US3957850A, “Phenylacetic acid derivatives” (priority 1971, dated 1976).
Read-outs that look alike come from different tables or passages of the source.

Columns and labels:
[1] = Acute toxicity determination, oral LD50 by method of BEHRENS and KARBER; conditions: mouse, in vivo, female Swiss mice, 48 hours observation
Procedure: Acute toxicity tests were carried out with lots of 10 female mice of "Swiss" strain, weighing from 19 to 21 g.
The means lethal dose (LD50) by the oral route was determined by means of the method of BEHRENS and KARBER after keeping the animals under observation during 48 hours. In this table are also set forth the LD50 of acetylsalicylic acid and of indometacine used as reference materials.

[2] = tested on: carragheenin-induced edema of the paws; experiment: Anti-inflammatory activity: test of the carragheenin-induced edema of the paws in rats; assay type: in vivo; conditions: Rattus norvegicus, 1 h, read-out: % inhibition of inflammation; for inhibition in vivo at 50 mg/kg: 50 mg/kg (about 1/36 of LD50); for inhibition in vivo at 67 mg/kg: 67 mg/kg (about 1/36 of LD50); for inhibition in vivo at 33 mg/kg: 33 mg/kg (about 1/36 of LD50)
Procedure: The anti-inflammatory activity was determined by means of the test of the carragheenin-induced edema of the pawsin rats.
Male rats weighing about 120 g are administered 0.1 ml of an 0.5% carragheenin suspension (plantar sub-aponeurotic injection) one hour after oral treatment with the various test compounds.
The volume of the rear paws is measured prior to injection of the inflammatory agent, and then 2, 3 and 4 hours after injection.
The difference between the volume of the paws of the treated animals and the volume of the paws of the reference animals evidences the anti-inflammatory action of the various test compounds.
The same test was carried out with indometacine.

[3] = tested on: peritoneal pain induced by injection of acetic acid; experiment: Analgesic activity: inhibition test of the peritoneal pain induced by injection of acetic acid (writhing); assay type: in vivo, mice; conditions: Mus musculus, read-out: % analgesia
Procedure: The analgesic activity was determined by the inhibition test of the peritoneal pain induced by injection of acetic acid.
The materials having an analgesic action reduce or eliminate this syndrome.
Lots of 10 mice are given orally the various test compounds, 30 minutes prior to injection of the challenging material. The writhing movements are counted during 15 minutes and the analgesic effect is expressed as percent decrease of the number of stretching movements with respect to the reference animals.
The same test was carried out with acetylsalicylic acid.

[4] = male rats, oral, one hour before carragheenin
[5] = mice, oral, 30 minutes before acetic acid
[6] = male rats, oral, 81 mg/kg (about 1/36 of LD50), one hour before carragheenin

| SMILES | LD50 at 48 h [1] | inhibition in vivo at 67 mg/kg [2, 4] | also measured |
| --- | --- | --- | --- |
| C=CCNc1ccc(C(C)C(=O)[O-])cc1.[Li+] (stereo not shown) | 2910 mg/kg | – | – |
| C=CCNc1ccc(C(C)C(=O)O)cc1 (stereo not shown) [2-(p-allylaminophenyl)propionic acid, 2-(p-Allylaminophenyl)-propionic acid] | 1780 mg/kg | – | inhibition in vivo at 50 mg/kg [2, 4]: 50%; inhibition in vivo at 20 mg/kg ([3]; mice, oral, 20 mg/kg, 30 minutes before acetic acid): 50% |
| CC(C(=O)O)c1ccc(NCc2ccccc2)cc1 (stereo not shown) [2-(p-benzylaminophenyl)propionic acid] | 880 mg/kg | – | inhibition in vivo at 25 mg/kg ([2]; male rats, oral, 25 mg/kg (about 1/36 of LD50), one hour before carragheenin): 12%; inhibition in vivo at 10 mg/kg ([3]; mice, oral, 10 mg/kg, 30 minutes before acetic acid): 47% |
| CCNc1ccc(C(C)C(=O)O)cc1 (stereo not shown) [2-(p-ethylaminophenyl)propionic acid, 2-(p-Ethylaminophenyl)propionic acid] | 2400 mg/kg | 47% | inhibition in vivo at 27 mg/kg [3, 5]: 44% |
| CC(C)Nc1ccc(C(C)C(=O)O)cc1 (stereo not shown) [2-(p-isopropylaminophenyl)propionic acid, 2-(p-Isopropylaminophenyl)-propionic acid] | 2400 mg/kg | 44% | inhibition in vivo at 27 mg/kg [3, 5]: 56% |
| C=C(C)CNc1ccc(C(C)C(=O)O)cc1 (stereo not shown) [2-(p-methallylaminophenyl)propionic acid, 2-(p-Methallylaminophenyl)propionic acid] | 2400 mg/kg | 51% | inhibition in vivo at 7 mg/kg ([3]; mice, oral, 7 mg/kg, 30 minutes before acetic acid): 58% |
| CNc1ccc(C(C)C(=O)O)cc1 (stereo not shown) [2-(p-methylaminophenyl)propionic acid, 2-(p-Methylaminophenyl)propionic acid] | > 3200 mg/kg | – | inhibition in vivo at 89 mg/kg ([2]; male rats, oral, 89 mg/kg (about 1/36 of LD50), one hour before carragheenin): 44%; inhibition in vivo at 36 mg/kg [3, 5]: 60% |
| CCCCNc1ccc(C(C)C(=O)O)cc1 (stereo not shown) [2-(p-n-butylaminophenyl)propionic acid, 2-(p-n-Butylaminophenyl)propionic acid] | 1200 mg/kg | – | inhibition in vivo at 33 mg/kg [2, 4]: 33%; inhibition in vivo at 13 mg/kg ([3]; mice, oral, 13 mg/kg, 30 minutes before acetic acid): 50% |
| CCCNc1ccc(C(C)C(=O)O)cc1 (stereo not shown) [2-(p-n-propylaminophenyl)-propionic acid, 2-(p-n-Propylaminophenyl)propionic acid] | 2400 mg/kg | 47% | inhibition in vivo at 13.5 mg/kg [3, 5]: 61% |
| C#CCNc1ccc(C(C)C(=O)O)cc1 (stereo not shown) [2-(p-propargylaminophenyl)propionic acid, 2-(p-Propargylaminophenyl)-propionic acid] | 2400 mg/kg | 47% | inhibition in vivo at 13.5 mg/kg [3, 5]: 55% |
| C=C(C)CNc1ccc(C(C)C(=O)OC)cc1.Cl (stereo not shown) [Methyl 2-(p-methallylaminophenyl)-propionate hydrochloride] | 2400 mg/kg | 46% | inhibition in vivo at 27 mg/kg [3, 5]: 49% |
| CC(=O)Oc1ccccc1C(=O)O [acetylsalicylic acid, reference compound] | 1500 mg/kg | – | inhibition in vivo at 100 mg/kg ([3]; po): 55% |
| C=CCNc1ccc(CC(=O)OCC)cc1 [ethyl p-allylaminophenylacetate, Ethyl para-allylaminophenylacetate] | 2400 mg/kg | 39% | inhibition in vivo at 67 mg/kg [3, 5]: 41% |
| C=C(C)CNc1ccc(CC(=O)OCC)cc1 [ethyl p-methallylaminophenylacetate, Ethyl p-methallylaminophenylacetate] | 2400 mg/kg | 38% | inhibition in vivo at 67 mg/kg [3, 5]: 51% |
| COc1ccc2c(c1)c(CC(=O)O)c(C)n2C(=O)c1ccc(Cl)cc1 [indometacine, reference compound] | 50 mg/kg | – | inhibition in vivo at 5 mg/kg ([2]; po): 37% |
| C=CCNc1ccc(C(C)C(=O)[O-])cc1.[Li+] (stereo not shown) [lithium salt] | – | – | inhibition in vivo at 81 mg/kg ([2]; po): 59%; inhibition in vivo at 81 mg/kg ([3]; po): 28% |
| C=CCNc1ccc(C(C)C(=O)OC)cc1 (stereo not shown) [methyl 2-(p-allylaminophenyl)propionate, Methyl 2-(p-allylaminophenyl)-propionate] | 1600 mg/kg | – | inhibition in vivo at 50 mg/kg [2, 4]: 35%; inhibition in vivo at 25 mg/kg ([3]; mice, oral, 25 mg/kg, 30 minutes before acetic acid): 57% |
| C=CCNc1ccc(CC(=O)O)cc1 [p-allylaminophenylacetic acid, p-Allylaminophenylacetic acid] | 1550 mg/kg | – | inhibition in vivo at 45 mg/kg ([2]; male rats, oral, 45 mg/kg (about 1/36 of LD50), one hour before carragheenin): 32%; inhibition in vivo at 100 mg/kg ([3]; mice, oral, 100 mg/kg, 30 minutes before acetic acid): 51% |
| O=C(O)Cc1ccc(NCc2ccccc2)cc1 [p-benzylaminophenylacetic acid, p-Benzylaminophenylacetic acid] | 2400 mg/kg | 26% | inhibition in vivo at 67 mg/kg [3, 5]: 33% |
| CCNc1ccc(CC(=O)O)cc1 [p-ethylaminophenylacetic acid, p-Ethylaminophenylacetic acid] | 2910 mg/kg | – | inhibition in vivo at 81 mg/kg [2, 6]: 23%; inhibition in vivo at 16 mg/kg ([3]; mice, oral, 16 mg/kg, 30 minutes before acetic acid): 37.5% |
| CC(C)Nc1ccc(CC(=O)O)cc1 [p-isopropylaminophenylacetic acid, p-Isopropylaminophenylacetic acid] | 2400 mg/kg | 42% | inhibition in vivo at 13.5 mg/kg [3, 5]: 42% |
| C=C(C)CNc1ccc(CC(=O)O)cc1 [p-methallylaminophenylacetic acid, p-Methallylaminophenylacetic acid] | 1780 mg/kg | – | inhibition in vivo at 49 mg/kg ([2]; male rats, oral, 49 mg/kg (about 1/36 of LD50), one hour before carragheenin): 25%; inhibition in vivo at 49 mg/kg ([3]; mice, oral, 49 mg/kg, 30 minutes before acetic acid): 32% |
| CCCCNc1ccc(CC(=O)O)cc1 [p-n-butylaminophenylacetic acid, p-n-Butylaminophenylacetic acid] | 1200 mg/kg | – | inhibition in vivo at 33 mg/kg [2, 4]: 21%; inhibition in vivo at 33 mg/kg ([3]; mice, oral, 33 mg/kg, 30 minutes before acetic acid): 51% |
| CCCNc1ccc(CC(=O)O)cc1 [p-n-propylaminophenylacetic acid, p-n-Propylaminophenylacetic acid] | 2400 mg/kg | 38% | inhibition in vivo at 27 mg/kg [3, 5]: 49% |
| C#CCNc1ccc(CC(=O)O)cc1 [p-propargylaminophenylacetic acid] | 2910 mg/kg | – | inhibition in vivo at 81 mg/kg [2, 6]: 18%; inhibition in vivo at 36 mg/kg [3, 5]: 51% |
